Test [1] has as its system HCT116-TOPBP1-mAID-Clover cells. Briefly: TOPBP1 degron assay, HCT116-TOPBP1-mAID-Clover cells. In kind it is cell-based, human. On the procedure: Immunofluorescence microscopy
(§1) For detection of EdU incorporation in mitosis and the analysis of recruitment of TOPBP1, CIP2A, MUS81, ERCC1, TOPBP1-mAID-Clover, eGFP tagged SLX4 and eGFP tagged Polθ in RPE1 p53^-/- FRT/TR and DLD1 BRCA2^-/-cells, respectively, cells were grown on 13 mm 1.5 thickness coverslips and treated as described. Subsequently cells were simultaneously fixed and permeabilised in PTEMF buffer (20 mM PIPES pH 6.8, 10 mM EGTA, 0.2% Triton X-100, 1 mM MgCl2 and 4% formaldehyde) for 10 minutes at room temperature. For detection of micronuclei, cells were fixed in 250 mM HEPES pH 7.5, 0.1% Triton X-100, 4% PFA in PBS for 20 minutes at 4 °C.
(§2) Quantification was carried out using FIJI (ImageJ, RRID:SCR_003070) software, CellProfiler (Broad Institute), Harmony (Revvity) or using Aivia (Leica Microsystems). Images of mitotic cells were analysed in 3D with maximum Z projections used for representative images in the manuscript to assist with visualisation.For interphase cells 2D images were analysed.

A further test has as its system DLD1 BRCA2-/- cells. The test is described as follows: Proliferation (Incucyte), DLD1 BRCA2-/- cells. In kind it is cell-based, human. The conditions noted are these: 5 µM ART558 + siSLX4, compared to siCIP2A; three independent experiments. On the procedure:
For proliferation analysis of DLD1 BRCA2^-/- cells after treatment with siRNA as indicated, 72 h post-transfection of the first pulse of siRNA, 1500 cells were seeded per well in a PhenoPlate 96-well optically clear tissue culture plate (Revvity, 6055302). […] The following day the media was aspirated and replaced with 200 µl of RPMI 1640 medium containing standard antibiotics, 10% FBS and 2 mM L-glutatmine.
To analyse cellular proliferation of DLD1 BRCA2^-/- or SUM149PT BRCA1^-/-cells expressing a minimal SLX4 T1260 containing fragment, 1500 cells were seeded per well in a PhenoPlate 96-well optically clear tissue culture plate (Revvity, 6055302). […] The following day the medium was aspirated and replaced with 200 µl of RPMI 1640 medium containing standard antibiotics, 10% FBS and 2 mM L-glutatmine (DLD1 BRCA2^-/- SLX4 T1260 fragment cells or empty vector control expressing) or S Ham’s F-12 medium supplemented with 5% FBS, 10 μg/mL insulin, 0.5 μg/mL hydrocortisone and penicillin/streptomycin antibiotics for SUM149PT BRCA1^-/- (SLX4 T1260 fragment or empty vector control expressing) containing 1 µg/ml doxycycline.

The subject of another test is RPE1 p53-/- FRT/TR cells. The test is described as follows: Micronuclei formation, RPE1 p53-/- FRT/TR cells. The test is classed as cell-based, human. Particulars: 5 µM ART558, 18 h, with 400 nM aphidicolin, three independent experiments. As for the experimental part:
as §1
Coverslips were then incubated for 5 min in 1x PBS with three buffer changes followed by incubation with 0.5% Triton X-100/ PBS for 10 min at room temperature. Coverslips were then incubated for 5 minutes in 1x PBS with three buffer changes. […]
as §2

A further test concerns RPE1 p53-/- cells. Briefly: Immunofluorescence foci, RPE1 p53-/- cells. In kind it is cell-based, human. As for the experimental part:
Immunofluorescence microscopy […] For detection of micronuclei, cells were fixed in 250 mM HEPES pH 7.5, 0.1% Triton X-100, 4% PFA in PBS for 20 minutes at 4 °C. Coverslips were then incubated for 5 min in 1x PBS with three buffer changes followed by incubation with 0.5% Triton X-100/ PBS for 10 min at room temperature. Coverslips were then incubated for 5 minutes in 1x PBS with three buffer changes. For EdU detection coverslips were transferred to a humidified chamber and incubated in EdU click it reaction buffer containing Alexafluor 488 azide for 1 h at room temperature followed by three 5 min washes in 1x PBS. Coverslips were then incubated in 5% FBS/PBS for 1 h followed by overnight incubation at 4 °C with primary antibody diluted in 5% FBS/PBS. Coverslips were then washed 3 × 5 min in 1x PBS followed by 1 h incubation at room temperature in 5% FBS/PBS containing secondary antibodies. Coverslips were incubated a further three times for 5 min in 1x PBS. Coverslips were then mounted on superfrost microscopy slides using Vectashield mounting medium with DAPI (Vector laboratories, […]). […] Cells were fixed in […] for 15 min at room temperature, followed by 3 × 5 min washes in 1xPBS. Coverslips were then incubated in 0.5% Triton-X/PBS for 10 min at room temperature, followed by a further 3 × 5 min 1xPBS washes. Coverslips were then incubated in blocking buffer (2% BSA, 0.05% Tween-20) for 1 h at room temperature, followed by incubation in respective primary antibodies overnight at 4 °C. Coverslips were then washed 3x for 5 min in 1x PBS followed by incubation for 1 h at room temperature in blocking buffer containing secondary antibodies. Coverslips were then washed 3x for 5 min in 1x PBS and mounted with Vectashield PLUS antifade mounting medium with DAPI (Vector laboratories, […]). Images were acquired using a Zeiss Axio Observer Z1 MarianasTM Microscope attached with a CSU-SoRa spinning disk unit using either a Photometrics Kinetix sCMOS camera built by Intelligent Imaging Innovations (3i) or a Zeiss Axio Observer Z1 MarianasTM Microscope attached with a CSUX1 spinning disk unit and Hamamatsu Flash 4 CMOS camera built by Intelligent Imaging Innovations (3i) or using an Opera Phenix Plus high content imaging system (Revvity). In each case 405, 488 and 640 laser lines were used in addition to DAPI, GFP/FITC, iRFP/CY5 emission filters. Quantification was carried out using FIJI (ImageJ, RRID:SCR_003070) software, CellProfiler (Broad Institute), Harmony (Revvity) or using […] Microsystems). Images of mitotic cells were analysed in 3D with maximum Z projections used for representative images in the manuscript to assist with visualisation.For interphase cells 2D images were analysed.

A further test concerns TOPBP1 BRCT 4-5. Briefly: Fluorescence polarisation, TOPBP1 BRCT 4-5. The test is classed as binding, human. The conditions noted are these: peptide 100 nM, pH 7.5. As for the experimental part: (§3) In vitro fluorescence polarisation
(§4) Fluorescein-labelled peptides corresponding to amino acids 1253-1267 or 1470-1483 of SLX4 incorporating pT1260 or pT1476 respectively, were incubated at a concentration of 100 nM at room temperature with increasing concentrations of TOPBP1 WT or mutant BRCT module variants[26] in 25 mM HEPES pH 7.5, 150 mM NaCl, 1 mM EDTA, 0.25 mM TCEP, 0.002% (v/v) Tween 20 in a black 96-well polypropylene plate. Additional experiments performed with dephosphorylated peptide were achieved though incubation with Lambda phosphatase supplemented with 1 mM MnCl2 to remove the phosphorylation on the peptide. Fluorescence polarisation was measured in a CLARIOstar multimode microplate reader. Binding curves were calculated assuming a single binding site with non-specific binding component, using Graphpad Prism10.2.3 (GraphPad Prism, RRID: SCR_002798). Binding affinities are presented as calculated values alongside the 95% CI values. The presented graphs represent data plotted with the non-specific binding component subtracted.

In another test the test system is TOPBP1 BRCT 7-8. Briefly: Fluorescence polarisation, TOPBP1 BRCT 7-8. The conditions noted are these: peptide 100 nM, pH 7.5. In kind it is binding, human. On the procedure: as §3, §4
On the technique in general: Fluorescence polarisation rises when a labelled molecule tumbles more slowly, as on binding a larger partner.

Another test concerns the target T1, TOPBP1 BRCT 0-1-2 WT (Homo sapiens, UniProt Q92547).
T1 construct: transformed with pGEX-6P-1 TOPBP1(BRCT0-2 1-290) WT and K155E, K250E and K155E/K250E mutant variants; GST (N); made in house; host or cells: E. coli BL21(DE3)
The test is described as follows: Fluorescence polarisation, TOPBP1 BRCT0-1-2 WT. In kind it is binding. Particulars: GST-tagged TOPBP1 fragment, peptide 100 nM, pH 7.5. On the procedure:
E.coli BL21(DE3) cells were transformed with pGEX-6P-1 TOPBP1(BRCT0-2 1-290) WT and K155E, K250E and K155E/K250E mutant variants for protein expression. Cell pellets were resuspended in lysis buffer containing 25 mM HEPES pH 7.5, 200 mM NaCl and 0.5 mM TCEP supplemented with 50U Turbo DNase, disrupted by sonication, and the resulting lysate clarified by centrifugation at 36,000 x g for 60 min at 4 °C. The supernatant was applied to a 5 ml HiTrap GST column, then washed with buffer containing 50 mM HEPES pH 7.5, 1000 mM NaCl, 0.25 mM TCEP, before the retained protein was eluted by application of the lysis buffer supplemented with 20 mM glutathione. […]
as §3
Fluorescein-labelled peptides corresponding to amino acids 1253-1267 or 1470-1483 of SLX4 incorporating pT1260 or pT1476 respectively, were incubated at a concentration of 100 nM at room temperature with increasing concentrations of TOPBP1 WT or mutant BRCT module variants[26] in 25 mM HEPES pH 7.5, 150 mM NaCl, 1 mM EDTA, 0.25 mM TCEP, 0.002% (v/v) Tween 20 in a black 96-well polypropylene plate. […] Fluorescence polarisation was measured in a CLARIOstar multimode microplate reader. Binding curves were calculated assuming a single binding site with non-specific binding component, using Graphpad Prism10.2.3 (GraphPad Prism, RRID: SCR_002798). […]

The values that follow come from paper PMC12661054, “The CIP2A-TOPBP1 axis facilitates mitotic DNA repair via MiDAS and MMEJ” (Nature Communications, 2025).

T1 sequence (Q92547 1-290): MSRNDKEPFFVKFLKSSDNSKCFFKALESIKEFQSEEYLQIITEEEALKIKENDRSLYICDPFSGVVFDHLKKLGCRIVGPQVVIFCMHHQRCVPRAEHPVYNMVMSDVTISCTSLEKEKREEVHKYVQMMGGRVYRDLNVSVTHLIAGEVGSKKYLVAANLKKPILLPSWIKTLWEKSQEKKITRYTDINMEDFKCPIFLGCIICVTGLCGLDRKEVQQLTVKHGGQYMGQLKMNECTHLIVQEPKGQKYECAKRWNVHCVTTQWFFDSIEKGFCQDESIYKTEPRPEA

For the compound `O=C(O)Cc1c[nH]c2ccccc12` [IAA, Indole-3-acetic acid], the “MUS81 foci formation in prometaphase after acute TOPBP1 degradation” value in test [1] (500 µM IAA, 2 h, 40 ng/ml nocodazole, three independent experiments) is recorded as “near total abolishment of MUS81 foci formation in prometaphase”. For the same compound, the “anaphase abnormalities after acute TOPBP1 degradation” value in test [1] (IAA-induced degradation of TOPBP1 in G2/M, release into mitosis) is on record as “marked increase in anaphase abnormalities”.

`Cc1cccc(N(C)C(=O)[C@@H]2[C@H](O)CCN2c2nc(C)cc(C(F)(F)F)c2C#N)c1` [Polθi]: in the test on DLD1 BRCA2-/- cells, the “proliferation, DLD1 BRCA2-/- cells depleted of SLX4” value is recorded as “broadly similar loss of proliferative capacity compared to the single depletion of CIP2A alone”. In the test on RPE1 p53-/- FRT/TR cells, the “micronuclei formation, WT cells” value is listed as “increase in micronuclei formation”.

As for `C[C@@]1(CO)[C@H](O)CC[C@@]2(C)[C@H]1CC[C@H]1C[C@@H]3C[C@@]12CC[C@]3(O)CO` [aphidicolin], in the test with RPE1 p53-/- cells (400 nM aphidicolin 18 h, nocodazole 60 ng/ml 2 h, RPE1 p53-/- FRT/TR WT, three experiments), the “CIP2A–γH2AX colocalising foci in mitosis” value is given as “striking increase in CIP2A–γH2AX colocalising foci in mitosis”. In the test with RPE1 p53-/- cells (400 nM aphidicolin 18 h, nocodazole 60 ng/ml 2 h, RPE1 p53-/- FRT/TR, two experiments (peer review file Fig. R1B)), the “RAD9 TOPBP1 colocalising foci” value is “increase in response to aphidicolin treatment”. In the test on RPE1 p53-/- cells (400 nM aphidicolin 18 h, nocodazole 60 ng/ml 2 h, RPE1 p53-/- SLX4-/- + eGFP-SLX4 WT, three independent experiments), the “WT SLX4 recruitment to prometaphase chromatin, colocalised with CIP2A” value was “recruited to prometaphase chromatin in response to replicative stress induced by aphidicolin and colocalised with CIP2A”. Also, the “colocalisation between CIP2A and FANCD2 foci on mitotic chromatin” value in the test with RPE1 p53-/- cells (400 nM aphidicolin 18 h, nocodazole 60 ng/ml 2 h, RPE1 p53-/- WT, three experiments) is “detected colocalisation between CIP2A and FANCD2 foci on mitotic chromatin”. Moreover, the “TOPBP1, SLX4, and MUS81 foci during interphase” value in the test with RPE1 p53-/- cells (RPE1 cells treated with aphidicolin) is “elevated formation of TOPBP1, SLX4, and MUS81 foci during interphase”. Moreover, the “mitotic colocalisation of SLX4, MUS81 or ERCC1 with TOPBP1 in prometaphase” value in the test on RPE1 p53-/- cells (RPE1 cells, aphidicolin) is on record as “elevated mitotic colocalisation of SLX4, MUS81 or ERCC1 with TOPBP1 in prometaphase”. The “colocalisation between γH2AX and MUS81” value in the test with RPE1 p53-/- cells (RPE1 p53-/- cells treated with aphidicolin) was “The same observation was made for colocalisation between γH2AX and MUS81”. In the test on RPE1 p53-/- cells (aphidicolin treated RPE1 p53-/- cells), the “colocalising γH2AX and SLX4 foci” value was “significant increase in colocalising γH2AX and SLX4 foci”. For the same compound, the “MDC1 foci formation in mitosis” value with RPE1 p53-/- cells (aphidicolin-treated RPE1 cells compared to control) was “elevated MDC1 foci formation in mitosis”.

For the compound “‘Flu’-GYGSPGLLDT(pT)PIRGSCT [SLX4 pT1476, Fluorescein-labelled peptide corresponding to amino acids 1470-1483 of SLX4 incorporating pT1476]”, the “interaction with TOPBP1 BRCTs 4-5” value in the test on TOPBP1 BRCT 4-5 is given as “no interaction was detected”. For the same compound, the “interaction with TOPBP1 BRCTs 7-8” value in the test on TOPBP1 BRCT 7-8 is given as “no interaction was detected”. Also, on TOPBP1 BRCT 0-1-2 WT, the “interaction with TOPBP1 BRCTs 0-1-2” value is recorded as “did not bind”.
